Drawing on ChEMBL document CHEMBL1140040, “Synthesis and cytotoxic activity of some novel polycyclic gamma-butyrolactones” (Bioorg Med Chem Lett, 2008), this text covers inhibition of growth and IC50 for two compounds.

Where only a bound is given, the exact number is not on record here.

In test [1] the test system is IGROV-1. Kind of test: Cytotoxicity against human IGROV1 cells assessed as age growth inhibition at 50 uM after 48 hrs by sulforhodamine B assay. Type of test: functional. The following applies: IGROV-1, 48 h, read-out: GI.
Test [2] relates to IGROV-1. The test can be described thus: Cytotoxicity against human IGROV1 cells assessed as age growth inhibition at 10 uM after 48 hrs by sulforhodamine B assay. Conditions: IGROV-1, 48 h, read-out: GI. It counts as functional.
For test [3], the system named is SK-OV-3. Kind of test: Cytotoxicity against human SKOV3 cells assessed as age growth inhibition at 100 uM after 48 hrs by sulforhodamine B assay. It counts as functional. Conditions: SK-OV-3, 48 h, read-out: GI.
Test [4] concerns HEp-2. Kind of test: Cytotoxicity against human HEP2 cells assessed as age growth inhibition at 10 uM after 48 hrs by sulforhodamine B assay. Conditions: HEp-2, 48 h, read-out: GI. Type of test: functional.
The subject of test [5] is COLO 205. The test can be described thus: Antiproliferative activity against human COLO205 cells after 48 hrs by sulforhodamine B assay. Type of test: functional, cell-based. Conditions: COLO 205, 48 h.
Test [6] concerns DU-145. The test can be described thus: Antiproliferative activity against human DU145 cells after 48 hrs by sulforhodamine B assay. It counts as functional, cell-based. Conditions: DU-145, 48 h.
For test [7], the system named is HEp-2. The test can be described thus: Cytotoxicity against human HEP2 cells assessed as age growth inhibition at 50 uM after 48 hrs by sulforhodamine B assay. Type of test: functional. The following applies: HEp-2, 48 h, read-out: GI.
For test [8], the system named is A549. The test can be described thus: Cytotoxicity against human A549 cells assessed as age growth inhibition at 100 uM after 48 hrs by sulforhodamine B assay. It counts as functional. Conditions: A549, 48 h, read-out: GI.
Test [9] deals with DU-145. The test can be described thus: Cytotoxicity against human DU145 cells assessed as age growth inhibition at 100 uM after 48 hrs by sulforhodamine B assay. Conditions: DU-145, 48 h, read-out: GI. Type of test: functional.
In test [10] the test system is SK-OV-3. The test can be described thus: Cytotoxicity against human SKOV3 cells assessed as age growth inhibition at 10 uM after 48 hrs by sulforhodamine B assay. The following applies: SK-OV-3, 48 h, read-out: GI. Type of test: functional.
Test [11] relates to HOP-62. The test can be described thus: Antiproliferative activity against human HOP62 cells after 48 hrs by sulforhodamine B assay. Type of test: functional, cell-based. The following applies: HOP-62, 48 h.
Test [12] concerns A549. The test can be described thus: Cytotoxicity against human A549 cells assessed as age growth inhibition at 50 uM after 48 hrs by sulforhodamine B assay. Type of test: functional. Conditions: A549, 48 h, read-out: GI.
The subject of test [13] is SF-295. Kind of test: Cytotoxicity against human SF295 cells assessed as age growth inhibition at 50 uM after 48 hrs by sulforhodamine B assay. Type of test: functional. Conditions: SF-295, 48 h, read-out: GI.
The subject of test [14] is HCT-15. Kind of test: Cytotoxicity against human HCT15 cells assessed as age growth inhibition at 50 uM after 48 hrs by sulforhodamine B assay. It counts as functional. Conditions: HCT-15, 48 h, read-out: GI.
Test [15] relates to DU-145. The test can be described thus: Cytotoxicity against human DU145 cells assessed as age growth inhibition at 10 uM after 48 hrs by sulforhodamine B assay. Type of test: functional. Conditions: DU-145, 48 h, read-out: GI.
Test [16] concerns HOP-62. Kind of test: Cytotoxicity against human HOP62 cells assessed as age growth inhibition at 100 uM after 48 hrs by sulforhodamine B assay. It counts as functional. The following applies: HOP-62, 48 h, read-out: GI.
The subject of test [17] is COLO 205. The test can be described thus: Cytotoxicity against human COLO205 cells assessed as age growth inhibition at 100 uM after 48 hrs by sulforhodamine B assay. It counts as functional. Conditions: COLO 205, 48 h, read-out: GI.
Test [18] relates to HCT-15. The test can be described thus: Antiproliferative activity against human HCT15 cells after 48 hrs by sulforhodamine B assay. It counts as functional, cell-based. The following applies: HCT-15, 48 h.
In test [19] the test system is SF-295. The test can be described thus: Cytotoxicity against human SF295 cells assessed as age growth inhibition at 100 uM after 48 hrs by sulforhodamine B assay. It counts as functional. The following applies: SF-295, 48 h, read-out: GI.
The subject of test [20] is HOP-62. The test can be described thus: Cytotoxicity against human HOP62 cells assessed as age growth inhibition at 50 uM after 48 hrs by sulforhodamine B assay. Conditions: HOP-62, 48 h, read-out: GI. Type of test: functional.
Test [21] deals with COLO 205. Kind of test: Cytotoxicity against human COLO205 cells assessed as age growth inhibition at 50 uM after 48 hrs by sulforhodamine B assay. It counts as functional. The following applies: COLO 205, 48 h, read-out: GI.
Test [22] has as its system SF-295. Kind of test: Cytotoxicity against human SF295 cells assessed as age growth inhibition at 10 uM after 48 hrs by sulforhodamine B assay. It counts as functional. Conditions: SF-295, 48 h, read-out: GI.
Test [23] has as its system HOP-62. Kind of test: Cytotoxicity against human HOP62 cells assessed as age growth inhibition at 10 uM after 48 hrs by sulforhodamine B assay. It counts as functional. Conditions: HOP-62, 48 h, read-out: GI.
In test [24] the test system is DU-145. The test can be described thus: Cytotoxicity against human DU145 cells assessed as age growth inhibition at 50 uM after 48 hrs by sulforhodamine B assay. It counts as functional. The following applies: DU-145, 48 h, read-out: GI.
Test [25] has as its system IGROV-1. Kind of test: Cytotoxicity against human IGROV1 cells assessed as age growth inhibition at 100 uM after 48 hrs by sulforhodamine B assay. Type of test: functional. Conditions: IGROV-1, 48 h, read-out: GI.
In test [26] the test system is HEp-2. Kind of test: Cytotoxicity against human HEP2 cells assessed as age growth inhibition at 100 uM after 48 hrs by sulforhodamine B assay. It counts as functional. Conditions: HEp-2, 48 h, read-out: GI.
For test [27], the system named is SF-295. Kind of test: Antiproliferative activity against human SF295 cells after 48 hrs by sulforhodamine B assay. Type of test: functional, cell-based. The following applies: SF-295, 48 h.
Test [28] has as its system HCT-15. The test can be described thus: Cytotoxicity against human HCT15 cells assessed as age growth inhibition at 100 uM after 48 hrs by sulforhodamine B assay. Type of test: functional. The following applies: HCT-15, 48 h, read-out: GI.
For test [29], the system named is SK-OV-3. Kind of test: Antiproliferative activity against human SKOV3 cells after 48 hrs by sulforhodamine B assay. It counts as functional, cell-based. Conditions: SK-OV-3, 48 h.
Test [30] deals with IGROV-1. The test can be described thus: Antiproliferative activity against human IGROV1 cells after 48 hrs by sulforhodamine B assay. Type of test: functional, cell-based. Conditions: IGROV-1, 48 h.
For test [31], the system named is SK-OV-3. The test can be described thus: Cytotoxicity against human SKOV3 cells assessed as age growth inhibition at 50 uM after 48 hrs by sulforhodamine B assay. It counts as functional. The following applies: SK-OV-3, 48 h, read-out: GI.
The test system of test [32] is HEp-2. The test can be described thus: Antiproliferative activity against human HEP2 cells after 48 hrs by sulforhodamine B assay. Conditions: HEp-2, 48 h. Type of test: functional, cell-based.
Test [33] concerns A549. Kind of test: Antiproliferative activity against human A549 cells after 48 hrs by sulforhodamine B assay. Conditions: A549, 48 h. It counts as functional, cell-based.
In test [34] the test system is A549. The test can be described thus: Cytotoxicity against human A549 cells assessed as age growth inhibition at 10 uM after 48 hrs by sulforhodamine B assay. Type of test: functional. Conditions: A549, 48 h, read-out: GI.
Test [35] relates to COLO 205. The test can be described thus: Cytotoxicity against human COLO205 cells assessed as age growth inhibition at 10 uM after 48 hrs by sulforhodamine B assay. It counts as functional. The following applies: COLO 205, 48 h, read-out: GI.
The subject of test [36] is HCT-15. The test can be described thus: Cytotoxicity against human HCT15 cells assessed as age growth inhibition at 10 uM after 48 hrs by sulforhodamine B assay. Type of test: functional. Conditions: HCT-15, 48 h, read-out: GI.
Test [37] deals with IGROV-1. Kind of test: Cytotoxicity against human IGROV1 cells assessed as age growth inhibition at 20 uM after 48 hrs by sulforhodamine B assay. Type of test: functional. Conditions: IGROV-1, 48 h, read-out: GI.
In test [38] the test system is HCT-15. The test can be described thus: Cytotoxicity against human HCT15 cells assessed as age growth inhibition at 20 uM after 48 hrs by sulforhodamine B assay. It counts as functional. The following applies: HCT-15, 48 h, read-out: GI.
Test [39] deals with DU-145. Kind of test: Cytotoxicity against human DU145 cells assessed as age growth inhibition at 20 uM after 48 hrs by sulforhodamine B assay. Type of test: functional. Conditions: DU-145, 48 h, read-out: GI.
The subject of test [40] is HEp-2. The test can be described thus: Cytotoxicity against human HEP2 cells assessed as age growth inhibition at 20 uM after 48 hrs by sulforhodamine B assay. Conditions: HEp-2, 48 h, read-out: GI. Type of test: functional.
Test [41] concerns SK-OV-3. The test can be described thus: Cytotoxicity against human SKOV3 cells assessed as age growth inhibition at 20 uM after 48 hrs by sulforhodamine B assay. Type of test: functional. The following applies: SK-OV-3, 48 h, read-out: GI.
For test [42], the system named is COLO 205. The test can be described thus: Cytotoxicity against human COLO205 cells assessed as age growth inhibition at 20 uM after 48 hrs by sulforhodamine B assay. Conditions: COLO 205, 48 h, read-out: GI. Type of test: functional.
Test [43] concerns A549. Kind of test: Cytotoxicity against human A549 cells assessed as age growth inhibition at 20 uM after 48 hrs by sulforhodamine B assay. Type of test: functional. Conditions: A549, 48 h, read-out: GI.
Test [44] deals with HOP-62. Kind of test: Cytotoxicity against human HOP62 cells assessed as age growth inhibition at 20 uM after 48 hrs by sulforhodamine B assay. Type of test: functional. Conditions: HOP-62, 48 h, read-out: GI.
For test [45], the system named is SF-295. The test can be described thus: Cytotoxicity against human SF295 cells assessed as age growth inhibition at 20 uM after 48 hrs by sulforhodamine B assay. Type of test: functional. Conditions: SF-295, 48 h, read-out: GI.

In the case of `CC1(C)CCC[C@@]2(C)C1=C[C@H]1C(=O)O[C@H](c3ccc(F)cc3)[C@H]12`, the inhibition of growth at 50 µM worked out at 20% in the test on IGROV-1 [1]; 13% in the test on HEp-2 [7]; 45% in the test with A549 [12]; 10% in the test on SF-295 [13]; 34% with HCT-15 [14]; 14% in the test with HOP-62 [20]. The inhibition of growth at 50 µM amounted to 26% in the test on COLO 205 [21], 0% in the test on DU-145 [24] and 13% with SK-OV-3 [31]. Moreover, the inhibition of growth at 10 µM in the test on IGROV-1 [2] worked out at 7%; in the test on HEp-2 [4] it was 7%; in the test on SK-OV-3 [10], 6%; with DU-145 [15] it was 0%; in the test with SF-295 [22], 4%; with HOP-62 [23], 9%. Also, the figures for the inhibition of growth at 10 µM with A549 [34], in the test with COLO 205 [35] and in the test with HCT-15 [36] were 2%, 11% and 13%, respectively. Moreover, the inhibition of growth at 100 µM stood at 41% in the test with SK-OV-3 [3]; 51% with A549 [8]; 35% in the test with DU-145 [9]; 27% with HOP-62 [16]; 32% in the test with COLO 205 [17]; 15% in the test with SF-295 [19]. Moreover, the inhibition of growth at 100 µM in the test on IGROV-1 [25] was 29%; in the test with HEp-2 [26], 23%; in the test on HCT-15 [28] it was 38%. The IC50 with COLO 205 [5], in the test on DU-145 [6], in the test on HOP-62 [11], with HCT-15 [18], in the test with SF-295 [27] and in the test on SK-OV-3 [29] was over 100 µM each time. Also, the IC50 with IGROV-1 [30] is over 100 µM; in the test with HEp-2 [32] it was over 100 µM; in the test on A549 [33] it was 79.3 µM.

With `O=c1[nH]cc(F)c(=O)[nH]1` [FLUOROURACIL], the inhibition of growth at 20 µM in the test with IGROV-1 [37] was 29%; in the test with HCT-15 [38] it was 30%; in the test on DU-145 [39], 29%; in the test on HEp-2 [40], 77%; in the test with SK-OV-3 [41], 46%; in the test on COLO 205 [42], 27%. The inhibition of growth at 20 µM in the test with A549 [43] was determined as 57%; in the test on HOP-62 [44] it was 37%; with SF-295 [45], 11%.
